# Assay results from patent US8349553B2, “Jasmonate based assays for identifying compounds that selectively inhibit mitochondrial bound hexokinases” (Ramot at Tel Aviv University Ltd., priority 2007, dated 2013).
# Key:
# [1] = system: mitochondria-bound hexokinase (mitochondrial fraction from a CT-26 tumor); assay: Hexokinase detachment assay, mitochondrial fraction of CT-26 tumor; assay type: biochemical, murine; settings: CT-26 tumor mitochondrial fraction
# Method: Mitochondrial fraction was prepared by mechanical lysis and differential centrifugation. All stages were performed on ice. Cells or extracted tissues were washed with PBS and disrupted by homogenization in extraction buffer (Sucrose 250 mM, HEPES-NaOH 10 mM, pH 7.2) freshly supplemented with 0.1 mM EDTA and Protease Inhibitors cocktail (Sigma). For each gram of cells or tissue, 4 volumes of extraction buffer were applied. The homogenate volume was doubled with the extraction buffer, and tissue and cell debris as well as nuclei were pelleted by centrifugation of 1,000 g for 10 minutes. The supernatant was further spun at 13,000 g for 10 minutes twice. Endoplasmic reticulum layer was removed. The pellet, designated as the mitochondrial fraction, was suspended in the appropriate buffer, depending on the assay for which the mitochondrial fraction was prepared. Mitochondrial fractions were used immediately or stored at −196° C.
# To determine the amount of hexokinase detached from the mitochondrial fraction by different agents, mitochondria were incubated with the agent of interest and pelleted by centrifugation. Activity of hexokinase in the supernatant (i.e., activity of the detached hexokinase) was determined spectrophotometrically at 340 nm. The reaction couples the ADP formation by hexokinase, consuming the ADP for pyruvate formation by pyruvate kinase, and reducing the pyruvate with NADH by lactate dehydrogenase. Briefly, mitochondria were suspended in incubation buffer (HEPES pH 7.4 20 mM, Sucrose 0.25M, Glucose 10 mM, KCl5 mM, MgCl2 10 mM; 0.2 mg/test, 100 μL/test) and incubated as described below. […]
# Methyl jasmonate perturbs mitochondria directly in a PTPC-dependent manner (Rotem, 2005). In order to determine whether methyl jasmonate is able to detach hexokinase from mitochondrial fraction isolated from CT-26 tumors, the activity of hexokinase in the supernatant of mitochondrial fraction treated for different time periods was measured. […] The activity of unbound hexokinase was measured and compared to the activity of spontaneously detached hexokinase (control).
# [2] = Solubility in SPR running buffer; assay type: physicochemical; settings: PBS X 1 with 0.005% Tween and 5% DMSO
# Method: SPR using ProteOn-EP5 (Bio-Rad, Hercules, Calif., USA) system has been applied to study the direct interaction of methyl jasmonate with hexokinase. This system allowed measuring ligand-analyte interactions in a 6×6 format in real time. Purified rat brain HKI and rabbit immunoglobulin G (Rb IgG; ligands) were diluted in 10 mM Na acetate pH 4 and 4.5, respectively, and coupled to a GLM sensor surface activated with 37.5 mg/ml N-Ethyl-N′-(3′ dimethylaminopropyl) carbodiimide hydrochloride and 7.5 mg/ml N-hydroxysuccinimide. HKI and IgG were added to saturate the chip at 100 μg/ml. Remaining reactive groups on the chip were then inactivated with 1 M ethanolamine pH 8.5. […] Methyl jasmonate and jasmonic acid (analytes) were diluted in running buffer (PBS X 1 with 0.005% Tween and 5% DMSO) and injected onto the sensor chip at varying concentrations. All experiments were performed at flow rate of 50 μl/min, at 25° C.
# [3] = system: HKI and HKII (mitochondrial fraction of B16 tumors); assay: Western blot of supernatants with anti-HKI and anti-HKII, B16 tumor mitochondrial fraction; assay type: biochemical, murine; settings: B16 tumor mitochondrial fraction supernatant
# Method: For analysis of hexokinase levels, the experiments were performed similarly to hexokinase detachment assay described above, and unbound hexokinase in the supernatant fraction was extracted as described in Fingrut (2005). Samples were separated by sodium dodecylsulfate-polyacrylamide gel (7%) electrophoresis followed by immunoblotting. The blots were probed with specific anti-HKI or anti-HKII antibodies (1:300, Santa-Cruz Biotechnology, CA, USA). Hexokinase-antibody complexes were stained with HRP-conjugated antibody (1:10,000, Santa-Cruz Biotechnology, CA, USA). Enhanced chemiluminescence (ECL) reagent (Biological Industries, Beit Haemek, Israel) was added, and the blots were exposed to ECL film (Eastman Kodak, Rochester, N.Y., USA). Hexokinase detachment from mitochondrial fraction is not limited to CT-26 colon carcinoma. Mitochondrial fractions isolated from different cancer cells, namely Molt-4 cells, BCL-1 leukemic cells and B16 melanoma tumors were incubated for 30 minutes at 37° C., and the activity of unbound hexokinase was measured and compared to the activity of spontaneously (control) detached hexokinase. […] The supernatant of the experiments were separated on SDS-PAGE and probed with anti-HKI and anti-HKII antibodies.
# [4] = system: mitochondrial fraction of mouse brain; assay: Mitochondrial swelling assay, mouse brain; assay type: biochemical; settings: 1 mM
# Method: Freshly isolated mitochondrial fraction was washed with extraction buffer to remove EDTA and resuspended in swelling buffer (Mannitol 220 mM, Sucrose 70 mM, Tris, pH 7.2, 150 mM, KH2PO4, pH 7.2, 0.2 mM; 0.2 mg in 100 μL) freshly supplemented with potassium succinate, pH 7.2, 5 mM. Every component was sodium-free. Optical density was monitored at the wave length of 540 nm for 2-5 minutes before the addition of the examined reagents, e.g. methyl jasmonate, and for additional 20 minutes afterwards.
# In order to examine the consistency of the relationship between the ability of methyl jasmonate to detach bound hexokinase and mitochondrial damage, methyl jasmonate was tested in mouse brain in comparison to mouse liver. The comparison was performed due to known differences of mitochondrial hexokinase content between mouse brain vs. its liver. It is well established in the art that brain mitochondrial fraction is rich in bound hexokinase, while liver mitochondrial fraction is essentially devoid of it (Wilson, 1995). […] Mitochondrial fractions were incubated for either 10, 30 or 60 minutes at 37° C. The activity of unbound hexokinase was measured and compared to the activity of spontaneously (control) detached hexokinase. Consequently, the ability of methyl jasmonate to induce swelling in mitochondrial fraction isolated from mouse brain and liver was tested.
structure (smiles),measurement,setting,value
CC/C=C\CC1C(=O)CCC1CC(=O)OC (centres unmarked) [methyl jasmonate],"detachment of hexokinase (activity of unbound hexokinase compared to spontaneously detached control), time course","[1]; 3 mM, 10, 30 or 60 minutes at 37° C.",detached hexokinase in a time-dependent manner
same,"detachment of hexokinase (activity of unbound hexokinase compared to control), dose dependence",[1]; 30 minutes of incubation,dose-dependent
same,solubility in the running buffer,[2],limited solubility
same,"detachment of hexokinase confirmed by immunoblot (anti-HKI, anti-HKII)",[3],detachment of hexokinase from mitochondrial fraction of the various cancer cells was further confirmed
same,mitochondrial swelling (optical density at 540 nm),[4],led to swelling in brain
